This data set can be described thus: shake-flask (equal volumes, stirred); both phases assayed by HPLC. Particulars: 32 °C.
As for `CCCCCCCCCCCCN1CCCCCC1=O`, the “partition coefficient iso-octane / distilled water” value is 2004 concentration ratio.
The result for `CCCCCCCN1CCN(C)C1=O` reads 24 concentration ratio; that for `CCCCCCCCCCN1CCN(C)C1=O`, 756 concentration ratio; that for `CCCCCCCCCCCCN1CCN(C)C1=O`, 7350 concentration ratio.

Values taken from patent US4677131.
